Assay results as given in patent US9562031B1, “Phenethyldihydrobenzodioxolones and methods of use” (Sequoia Sciences, Inc., priority 2015, dated 2017).

Experiments:
[1] = tested on: NCI/ADR-RES cells; assay: antiproliferation assay, NCI/ADR-RES; format: cell-based; conditions: Homo sapiens
Description: (§1) For the antiproliferation assay, NCI-H460 (large cell lung carcinoma) or M14 (amelanotic melanoma) cells were grown in RPMI-1640 with 10% FBS supplemented with L-glutamine and HEPES. Cells were seeded into 96-well plates at 5×10^2 to 5×10^4 cells/well and allowed to adhere overnight; the medium was then removed. A stock solution of test compound in DMSO was diluted in medium to generate a series of working solutions. Aliquots (100 μl) of the working solutions were then added to the appropriate test wells to expose cells to the final concentrations of compound in a total volume of 100 μl. Seven different concentrations were tested, with 2-5 wells per concentration. Camptothecin was used as a positive control; wells containing vehicle without compound were used as negative controls. Plates were kept for 72 h in a 37° C., 5% CO2 incubator. After incubation, viable cells were detected with the CELLTITER 96 AQueous Non-Radioactive Cell Proliferation Assay (Promega), and IC50 values were determined using GraphPad Prism 5 software.
(§2) Antiproliferation of several of the active compounds was tested against additional cell lines.
(§3) Compound 4 was tested for antiproliferation activity against several paclitaxel-resistant human cancer cell lines.

[2] = tested on: K-562 cells; assay: antiproliferation assay, K-562; format: cell-based; conditions: Homo sapiens, K562
Description: as §1, §2

[3] = tested on: ACHN cells; assay: antiproliferation assay, paclitaxel-resistant ACHN; format: cell-based; conditions: Homo sapiens
Description: as §1, §3

[4] = tested on: DLD-1 cells; assay: antiproliferation assay, paclitaxel-resistant DLD-1; format: cell-based; conditions: Homo sapiens
Description: as §1, §3

[5] = tested on: LOX-IMVI (melanoma) xenograft tumors; assay: tumor growth inhibition, LOX-IMVI murine xenograft model; format: in vivo, mice
Description: Tumor growth inhibition of compound 4 was measured in several murine xenograft models, and the results of individual experiments are listed in Table 14. Tumors were initiated by subcutaneous injection of either tumor cells from cell culture or tumor fragments from continuous in vivo passage. When tumors reached volumes between approximately 100 and 200 mm^3, the mice were divided into vehicle and treatment groups. Compound or vehicle was administered by IP injection in a volume of 5-10 mL/kg.
Changes in tumor weight (delta weights) for each treated (T) and control (C) group are calculated for each day tumors are measured by subtracting the median tumor weight on the first day of treatment (staging day) from the median tumor weight on the specified observation day. These values are used to calculate a percent T/C as follows: % T/C=(delta T/delta C)×100. The optimal T/C is the minimal value obtained after the first treatment.

[6] = tested on: MOLT-4 cells; assay: NCI-60 panel antiproliferation, MOLT-4; format: cell-based, human; conditions: Homo sapiens, NCI 60-cell panel
Description: (§4) Bifidenone and Compound 37 were tested for antiproliferation activity against the NCI-60 panel of cancer cell lines. COMPARE analysis was then conducted to compare the activity “fingerprint” of bifidenone to those of known classes of compounds (Zhou, B.-N., Hoch, J. M., Johnson, R. K., Mattern, M. R., Eng, W.-K., Ma, J., Hecht, S. M., Newman, D. J., Kingston, D. G. I., 2000. Use of COMPARE Analysis to Discover New Natural Product Drugs: Isolation of Camptothecin and 9-Methoxycamptothecin from a New Source. Journal of Natural Products 63, 1273-1276.).

[7] = tested on: UACC-62 cells; assay: NCI-60 panel antiproliferation, UACC-62; format: cell-based, human; conditions: Homo sapiens, NCI 60-cell panel
Description: as §4

[8] = tested on: SNB-19 cells; assay: NCI-60 panel antiproliferation, SNB-19; format: cell-based, human; conditions: Homo sapiens, NCI 60-cell panel
Description: as §4

[9] = tested on: SF-539 cells; assay: NCI-60 panel antiproliferation, SF-539; format: cell-based, human; conditions: Homo sapiens, NCI 60-cell panel
Description: as §4

[10] = tested on: NCI-H460 cells; assay: NCI-60 panel antiproliferation, NCI-H460; format: cell-based, human; conditions: Homo sapiens, NCI 60-cell panel
Description: as §4

[11] = tested on: NCI-H522 cells; assay: NCI-60 panel antiproliferation, NCI-H522; format: cell-based, human; conditions: Homo sapiens, NCI 60-cell panel
Description: as §4

[12] = tested on: OVCAR-3 cells; assay: NCI-60 panel antiproliferation, OVCAR-3; format: cell-based, human; conditions: Homo sapiens, NCI 60-cell panel
Description: as §4

[13] = tested on: ACHN cells; assay: NCI-60 panel antiproliferation, ACHN; format: cell-based, human; conditions: Homo sapiens, NCI 60-cell panel
Description: as §4

[14] = tested on: HL-60 cells; assay: NCI-60 panel antiproliferation, HL-60; format: cell-based, human; conditions: Homo sapiens, NCI 60-cell panel
Description: as §4

[15] = tested on: MDA-MB-468 cells; assay: NCI-60 panel antiproliferation, MDA-MB-468; format: cell-based, human; conditions: Homo sapiens, NCI 60-cell panel
Description: as §4

[16] = tested on: U251 cells; assay: NCI-60 panel antiproliferation, U251; format: cell-based, human; conditions: Homo sapiens, U-251, NCI 60-cell panel
Description: as §4

[17] = tested on: SN12C cells; assay: NCI-60 panel antiproliferation, SN12C; format: cell-based, human; conditions: Homo sapiens, NCI 60-cell panel
Description: as §4

[18] = tested on: DU-145 cells; assay: NCI-60 panel antiproliferation, DU-145; format: cell-based, human; conditions: Homo sapiens, NCI 60-cell panel
Description: as §4

[19] = tested on: NCI-H226 cells; assay: NCI-60 panel antiproliferation, NCI-H226; format: cell-based, human; conditions: Homo sapiens, NCI 60-cell panel
Description: as §4

[20] = tested on: MALME-3M cells; assay: NCI-60 panel antiproliferation, MALME-3M; format: cell-based, human; conditions: Homo sapiens, NCI 60-cell panel
Description: as §4

[21] = tested on: SK-Mel-5 cells; assay: NCI-60 panel antiproliferation, SK-MEL-5; format: cell-based, human; conditions: Homo sapiens, NCI 60-cell panel
Description: as §4

[22] = tested on: HCC-2998 cells; assay: NCI-60 panel antiproliferation, HCC-2998; format: cell-based, human; conditions: Homo sapiens, NCI 60-cell panel
Description: as §4

[23] = tested on: COLO205 cells; assay: NCI-60 panel antiproliferation, COLO205; format: cell-based, human; conditions: Homo sapiens, COLO 205, NCI 60-cell panel
Description: as §4

[24] = tested on: UACC-257 cells; assay: NCI-60 panel antiproliferation, UACC-257; format: cell-based, human; conditions: Homo sapiens, NCI 60-cell panel
Description: as §4

[25] = tested on: KM12 cells; assay: NCI-60 panel antiproliferation, KM12; format: cell-based, human; conditions: Homo sapiens, NCI 60-cell panel
Description: as §4

[26] = tested on: K-562 cells; assay: NCI-60 panel antiproliferation, K-562; format: cell-based, human; conditions: Homo sapiens, K562, NCI 60-cell panel
Description: as §4

[27] = tested on: SK-MEL-28 cells; assay: NCI-60 panel antiproliferation, SK-MEL-28; format: cell-based, human; conditions: Homo sapiens, NCI 60-cell panel
Description: as §4

[28] = tested on: M14 cells; assay: NCI-60 panel antiproliferation, M14; format: cell-based, human; conditions: Homo sapiens, NCI 60-cell panel
Description: as §4

[29] = IP 30 mg/kg, days 0,1,2,3,4,5,6

For C=CC[C@H]1C[C@]2([C@H](C)Cc3cc(O)c(OC)cc3F)OCOC2=CC1=O (relative stereo) [Compound 4, 6-allyl-7a-(1-(2-fluoro-5-hydroxy-4-methoxyphenyl)propan-2-yl)-7,7a-dihydrobenzo[d][1,3]dioxol-5(6H)-one], the IC50 [1] was 0.0091 µM, the IC50 ([1]; paclitaxel-resistant NCI/ADR-RES) was 0.009 µM and the IC50 [2] was 0.013 µM. For the same compound, the IC50 [3] was 0.015 µM, the IC50 [4] was less than 0.005 µM and the “Maximum Mean Body Weight Loss” value ([5]; IP 30 mg/kg, days 0,1,2,3,4,5) was 7%. For the same compound, the “Optimal T/C” value ([5]; IP 30 mg/kg, days 0,1,2,3,4,5) was 31%, the “Maximum Mean Body Weight Loss” value [5, 29] was 6% and the “Optimal T/C” value [5, 29] was 36%. The “Maximum Mean Body Weight Loss” value ([5]; IP 40 mg/kg, days 0,1,2,5,6,7) was 9% and the “Optimal T/C” value ([5]; IP 40 mg/kg, days 0,1,2,5,6,7) was 39%.
In the case of C=CC[C@H]1C[C@]2([C@@H](C)Cc3ccc(OC)c(F)c3)OCOC2=CC1=O [Compound 37, (6S,7aR)-6-allyl-7a-((S)-1-(3-fluoro-4-methoxyphenyl)propan-2-yl)-7,7a-dihydrobenzo[d][1,3]dioxol-5(6H)-one], the IC50 [6] is reported as 0.097 µM, the IC50 [7] is reported as 0.035 µM and the IC50 [8] is reported as 0.073 µM. The IC50 [9] was 0.074 µM, the IC50 [10] was 0.049 µM and the IC50 [11] was 0.061 µM. For the same compound, the IC50 [12] was 0.04 µM, the IC50 [13] was 0.032 µM and the IC50 [14] was 0.036 µM. For the same compound, the IC50 [15] was 0.059 µM, the IC50 [16] was 0.123 µM and the IC50 [17] was 0.35 µM. The IC50 [18] was 0.187 µM, the IC50 [19] was 0.141 µM and the IC50 [20] was 0.039 µM. It also gave an IC50 [21] of 0.06 µM, an IC50 [22] of 0.129 µM and an IC50 [23] of 0.067 µM. It also gave an IC50 [24] of 0.043 µM, an IC50 [25] of 0.055 µM and an IC50 [26] of 0.043 µM. For the same compound, the IC50 [27] was 0.037 µM and the IC50 [28] was 0.059 µM.
